Assay results as given in patent publication EP4778929A1, “NOVEL TYPE I TOPOISOMERASE INHIBITOR, AND PREPARATION METHOD THEREFOR AND USE THEREOF” (priority 2023, dated 2025).

Test system: HCT116 cells
Assay: Inhibition of cell proliferation by CTG (CellTiter-Glo) luminescence assay
Assay type: cell-based
Details: Homo sapiens, HCT-116; 72 h incubation, CellTiter-Glo; read-out: HCT116, IC50
Source text: Test Example 2. Determination of Compound-Mediated Inhibition of Cell Proliferation by CTG (CellTiter-Glo) Luminescence Assay
Principle: The Promega CellTiter-Glo™ luciferase reagent was used. Luciferase consumes ATP to generate light; metabolically active cells continuously produce ATP through respiration and other processes. After adding an equal volume of CellTiter-Glo™ reagent to the culture medium, the resulting luminescence is directly proportional to the ATP content, which in turn correlates with the number of viable cells. Thus, the assay quantifies compound-induced suppression of cell proliferation.
Experimental Procedure: HCT116 cells (ATCC) were revived in complete medium (McCoy's 5a + 10 % FBS). After two passages, exponentially growing cells were harvested, counted, and resuspended to the appropriate density. A 100 µL aliquot of cell suspension (2 000 cells per well) was seeded into 96-well plates and incubated overnight (37 °C, 5 % CO2, 100 % relative humidity). Test compounds were dissolved in DMSO to prepare 10 mM stock solutions and serially diluted 1:3 in DMSO to generate nine concentration steps. Each DMSO solution was further diluted 200-fold into medium; 25 µL of the resulting solutions were added to the cell plates (final DMSO concentration […]). After 72 h incubation (37 °C, 5 % CO2), 50 µL of CellTiter-Glo reagent was added per well. Plates were shaken gently, incubated for 30 min at room temperature in the dark, and luminescence was read on an EnVision multimode reader. Percent inhibition was calculated as: Inhibition % = (1−As/Ac) × 100, [formula] where As = signal from compound-treated wells and Ac = signal from DMSO-only control wells. Concentration-response data were fitted in Excel with the XLfit add-in using the four-parameter logistic equation: Y = Bottom + (Top−Bottom)/[1+((IC50/X))^(∧)HillSlope], [formula] to derive the IC50 value for each compound. Table 2. IC50 of compounds

Structure (SMILES) | IC50 [nM]
CC[C@@]1(O)C(=O)OCc2c1cc1n(c2=O)Cc2c-1c(=O)c1cc(F)c([C@H](O)C(F)(F)F)cc1n2C1CCCC1 (single isomer, unassigned) [Example 347] | < 20
CCN1CC[C@@H](n2c3c(c(=O)c4cc(F)ccc42)-c2cc4c(c(=O)n2C3)COC(=O)[C@]4(O)CC)C1 [Example 251, (S)-4-ethyl-8-fluoro-4-hydroxy-11-((R)-1-ethylpyrrolidin-3-yl)-1,12-dihydro-14H-pyrano[3',4':6,7]indolizino[2,1-b] quinoline-3,6,14(4H,11H)-trione] | < 20
CC[C@@]1(O)C(=O)OCc2c1cc1n(c2=O)Cc2c-1c(=O)c1cc(F)ccc1n2[C@@H]1CCN(C2CC(C)(C)C2)C1 [Example 254, (S)-4-ethyl-8-fluoro-4-hydroxy-11-((R)-1-(3,3-dimethylcyclobutyl)pyrrolidin-3-yl)-1,12-dihydro-14H-pyrano[3',4':6,7]indolizino[2,1-b]quinoline-3,6,14(4H,11H)-trione] | < 20
CC[C@@]1(O)C(=O)OCc2c1cc1n(c2=O)Cc2c-1c(=O)c1cc(F)ccc1n2[C@@H]1CCN(C2CC(F)(F)C2)C1 [Example 255, (S)-4-ethyl-8-fluoro-4-hydroxy-11-((R)-1-(3,3-difluorocyclobutyl)pyrrolidin-3-yl)-1,12-dihydro-14H-pyrano[3',4':6,7]indolizino[2,1-b]quinoline-3,6,14(4H,11H)-trione] | < 20
CCCN1CC[C@@H](n2c3c(c(=O)c4cc(F)ccc42)-c2cc4c(c(=O)n2C3)COC(=O)[C@]4(O)CC)C1 [Example 258, (S)-4-ethyl-8-fluoro-4-hydroxy-11-((R)-1-n-propylpyrrolidin-3-yl)-1,12-dihydro-14H-pyrano[3',4':6,7]indolizino[2,1-b] quinoline-3,6,14(4H,11H)-trione] | < 20
CC[C@@]1(O)C(=O)OCc2c1cc1n(c2=O)Cc2c-1c(=O)c1cc(F)ccc1n2[C@@H]1CCN(CC(C)C)C1 [Example 260, (S)-4-ethyl-8-fluoro-4-hydroxy-11-((R)-1-isobutylpyrrolidin-3-yl)-1H-pyrano[3',4':6,7]indolizino[2,1-b]quinoline-3,6,14 (4H,11H,12H)-trione] | < 20
CCC(CC)N1CC[C@@H](n2c3c(c(=O)c4cc(F)ccc42)-c2cc4c(c(=O)n2C3)COC(=O)[C@]4(O)CC)C1 [Example 261, (S)-4-ethyl-8-fluoro-4-hydroxy-11-((R)-1-(pentan-3-yl)pyrrolidin-3-yl)-1H-pyrano[3,4:6,7]indolizino[2,1-b]quinoline-3,6,14 (4H,11H,12H)-trione] | < 20
CC[C@@]1(O)C(=O)OCc2c1cc1n(c2=O)Cc2c-1c(=O)c1cc(F)ccc1n2[C@@H]1CCN(C(C)C)C1 [Example 263, (S)-4-ethyl-8-fluoro-4-hydroxy-11-((R)-1-isopropylpyrrolidin-3-yl)-1H-pyrano[3,4:6,7]indolizino[2,1-b]quinoline-3,6,14 (4H,11H,12H)-trione] | < 20
CC[C@@]1(O)C(=O)OCc2c1cc1n(c2=O)Cc2c-1c(=O)c1cc(F)ccc1n2[C@@H]1CCN(C2CCC(F)(F)CC2)C1 [Example 267, (S)-11-((R)-1-(4,4-difluorocyclohexyl)pyrrolidin-3-yl)-4-ethyl-8-fluoro-4-hydroxy-1H-pyrano[3,4:6,7]indolizino[2,1-b]quinoline-3,6,14(4H,11H,12H)-trione] | < 20
CC[C@@]1(O)C(=O)OCc2c1cc1n(c2=O)Cc2c-1c(=O)c1cc(F)ccc1n2[C@@H]1CCN(C2CC3(CCC3)C2)C1 [Example 270, (S)-4-ethyl-8-fluoro-4-hydroxy-11-((R)-1-(spiro[3.3]heptan-2-yl)pyrrolidin-3-yl)-1H-pyrano[3,4:6,7]indolizino[2,1-b] quinoline-3,6,14(4H,11H,12H)-trione] | < 20
CC[C@@]1(O)C(=O)OCc2c1cc1n(c2=O)Cc2c-1c(=O)c1cc(F)ccc1n2[C@@H]1CCN(C2CC3(CC3)C2)C1 [Example 271, (S)-4-ethyl-8-fluoro-4-hydroxy-11-((R)-1-(spiro[2.3]hexan-5-yl)pyrrolidin-3-yl)-1H-pyrano[3',4':6,7]indolizino[2,1-b]quinoline-3,6,14(4H,11H,12H)-trione] | < 20
CC[C@@]1(O)C(=O)OCc2c1cc1n(c2=O)Cc2c-1c(=O)c1cc(F)ccc1n2[C@@H]1CCN(C2CC3CC3C2)C1 (stereo partly drawn) [Example 273, (4S)-11-((3R)-1-(bicyclo[3.1.0]hexan-3-yl)pyrrolidin-3-yl)-4-ethyl-8-fluoro-4-hydroxy-1H-pyrano[3',4':6,7]indolizino[2,1-b]quinoline-3,6,14(4H,11H,12H)-trione] | < 20
CC[C@@]1(O)C(=O)OCc2c1cc1n(c2=O)Cc2c-1c(=O)c1cc(F)ccc1n2[C@@H]1CCN(C2CC2)C1 [Example 274, (4S)-11-((3R)-1-cyclopropylpyrrolidin-3-yl)-4-ethyl-8-fluoro-4-hydroxy-1H-pyrano[3',4':6,7]indolizino[2,1-b]quinoline-3,6,14(4H,11H,12H)-trione] | < 20
CC[C@@]1(O)C(=O)OCc2c1cc1n(c2=O)Cc2c-1c(=O)c1cc(F)c(F)cc1n2[C@@H]1CCN(C)C1 [Example 277] | < 20
CC[C@@]1(O)C(=O)OCc2c1cc1n(c2=O)Cc2c-1c(=O)c1cc(F)c(C)cc1n2[C@@H]1CCN(C2CC(F)(F)C2)C1 [Example 280] | < 20
CC[C@@]1(O)C(=O)OCc2c1cc1n(c2=O)Cc2c-1c(=O)c1cc(F)c(Cl)cc1n2[C@@H]1CCN(C2CCC2)C1 [Example 282] | < 20
CC[C@@]1(O)C(=O)OCc2c1cc1n(c2=O)Cc2c-1c(=O)c1cc(F)c(Cl)cc1n2[C@@H]1CCN(C)C1 [Example 283] | < 20
CC[C@@]1(O)C(=O)OCc2c1cc1n(c2=O)Cc2c-1c(=O)c1cc(F)c(CO)cc1n2C1CC2(CCC2)C1 [Example 312] | < 20
CC[C@@]1(O)C(=O)OCc2c1cc1n(c2=O)Cc2c-1c(=O)c1cc(F)c(CC(C)O)cc1n2C1CCC(C)(C)CC1 (stereo partly drawn) [Example 317] | < 20
CCC1(O)C(=O)OCc2c1cc1n(c2=O)Cc2c-1c(=O)c1cc(F)c(CO)cc1n2C12CC(C1)C2 (stereo not drawn) [Example 327] | < 20
CC[C@@]1(O)C(=O)OCc2c1cc1n(c2=O)Cc2c-1c(=O)c1cc(F)c(N)cc1n2-c1cc(C)cc(C)c1 [Example 350] | < 20
CC[C@@]1(O)C(=O)OCc2c1cc1n(c2=O)Cc2c-1c(=O)c1cc(F)c(N)cc1n2C1CC2(CCC2)C1 [Example 358] | < 20
CC[C@@]1(O)C(=O)OCc2c1cc1n(c2=O)Cc2c-1c(=O)c1cc(F)c(N)cc1n2C12CC(C1)C2 [Example 359] | < 20
CC[C@@]1(O)C(=O)OCc2c1cc1n(c2=O)Cc2c-1c(=O)c1cc(F)ccc1n2[C@@H]1CCCN(C2CCCC2)C1 [Example 370] | < 20
CC[C@@]1(O)C(=O)OCc2c1cc1n(c2=O)Cc2c-1c(=O)c1cc(F)ccc1n2[C@H]1CCCN(C2CC(F)(F)C2)C1 [Example 372] | < 20
CC[C@@]1(O)C(=O)OCc2c1cc1n(c2=O)Cc2c-1c(=O)c1cc(F)ccc1n2C[C@H]1CCN(C2CC(F)(F)C2)C1 [Example 402] | < 20
CC[C@@]1(O)C(=O)OCc2c1cc1n(c2=O)Cc2c-1c(=O)c1cc(F)ccc1n2C[C@H]1CCN(C(C)C)C1 [Example 404] | < 20
